One series concerns Saccaromyces cerevisiae. In words: activity against yeast-like fungi, Saccaromyces cerevisiae. It counts as cell-based.
A further series concerns microbial cells. The experiment in a line: activity against growing and dormant microbial cells and sphaeroplasts. It counts as cell-based. As to conditions: both growing and dormant cells.
A further series concerns Candida albicans. In words: activity against yeast-like fungi, Candida albicans. It counts as cell-based.
Series [1] in a line: titration / microtitration (pK). Format: physicochemical. The source says:
(OCH3 : determination according to the method of Zeisel). Molecular weight, determined by vapour pressure osmometry in ethyl acetate; found 536. Microtitration with 0.1 N tetramethylammonium hydroxide in methylcellosolve/water (8:2): found pK^xMCS 9.72, equivalent weight 545. Titration with 0.1 N HCl; no step (N atom therefore not basic).

A further series is described as follows: solubility. Format: physicochemical.
The subject of the next series is Candida lipolytica. The experiment in a line: activity against yeast-like fungi, Candida lipolytica. Format: cell-based.
The next series deals with Salmonella typhimurium. The experiment in a line: serial dilution test, MIC, Salmonella typhimurium. As to conditions: Salmonella enterica, 37°, Gram-negative. Format: cell-based. An excerpt:
(§1) The components display the following Rf values in a thin layer chromatogram on silica gel plates from Messrs. Merck (silica gel 60, F254): in chloroform/methanol (9:1): X=0.58; I=0.81; in benzene/methanol (9:1): X=0.26; I=0.30; in chloroform/acetone (5:5): X=0.40; I=0.53; and in benzene/acetone (5:5): X=0.47; I=0.74. In a serial dilution test the following minimum inhibitory concentrations (MIC) were found for Lysolipin I: […]

Series [2] is described as follows: stability / conversion of Lysolipin X into Lysolipin I. Format: physicochemical. The method, then: Lysolipin X was obtained as a colourless amorphous powder. […] The almost colourless amorphous powder thus obtained, that is to say Lysolipin X, can be crystallized from methanol; on heating the crystals undergo modification at 200° and melt at 260° C.
The pure product so obtained is stable in the absence of light and acid. In a thin layer chromatogram on silica gel in the system chloroform/methanol (39:1), Rf=0.22 (Rf of Lysolipin I=0.39). […] The signals at 0.9 and 1.3 ppm are probably to be ascribed to a fatty impurity. However, most of the signals in the range from 3 to 8 ppm are very similar to those of Lysolipin I and point to the close relationship between the two compounds.
On analogous working up, fractions 76-100 give an almost colourless amorphous powder (393 mg), which is Lysolipin X and cannot be purified by crystallisation. See FIGS. 7 and 8 for the NMR spectrum and the UV spectrum. On thin layer chromatography on silica gel in chloroform/methanol (39:1), Rf=0.22 (compared with 0.39 for Lysolipin I). On the thin layer plate, the spot for Lysolipin X, which is initially very pale and scarcely discernible, becomes deep yellow on standing in the air and, more rapidly, on warming.

Another series deals with Micro-organisms. The experiment in a line: MIC of Lysolipin X compared with Lysolipin I, serial dilution test. It counts as cell-based. Particulars: Lysolipin X relative to Lysolipin I.
Excerpt: as §1

The text below walks through data of US4277478A, “Antibiotic and use thereof” (priority 1975, dated 1981).

For `COc1c(Cl)ccc2c(=O)c3c(O)c4c5c(c3oc12)OCOC5C(OC)c1cc2c(c(O)c1-4)C(=O)N(C)C(OC)C2O` (stereo not drawn) [Lysolipin I], the “activity against yeast-like fungi” value in the series with Saccaromyces cerevisiae, in the series on Candida albicans and in the series on Candida lipolytica was “display an activity” in each case. Besides, the “activity against growing and dormant microbial cells and their sphaeroplasts” value in the series on microbial cells was “active”. Moreover, in series [1] (0.1 N HCl, N atom therefore not basic), the “titration with HCl” value was “no step”. Moreover, the pKa in series [1] (microtitration with 0.1 N tetramethylammonium hydroxide in methylcellosolve/water (8:2), read-out: pK^xMCS) stood at 9.72. Further, the “solubility in organic solvents” value in “solubility” (acetone, dimethylformamide, dimethylsulphoxide, ethyl acetate, hydrocarbons, halogenated hydrocarbons) is reported as “readily soluble”. In the series “solubility” (methanol, ethanol, n-propanol, ether, petroleum ether), the “solubility in lower alkanols, ether and petroleum ether” value is “partially soluble”. Also, in “solubility” (water and aqueous acids and bases), the “solubility in water and aqueous acids and bases” value is on record as “virtually insoluble”. The MIC (commonly the least concentration at which growth counts as inhibited) against Salmonella typhimurium is over 100 µg/mL.

Regarding `COc1c(Cl)ccc2c(=O)c3c(oc12)C1=C2C(OCO1)C(OC)c1cc4c(c(O)c1C2(O)C3O)C(=O)N(C)C(OC)C4O` (stereo not drawn) [Lysolipin X], the “stability to acid in solvent” value in series [2] (chloroform or methanol with formic, acetic, hydrochloric or sulfuric acid) is “converted into Lysolipin I”. For the same molecule, the “stability on heating or irradiation with UV light” value in series [2] (especially in the presence of catalytic amounts of acids) is listed as “forms Lysolipin I”. The “stability of impure material” value in series [2] (impure) is “unstable”. Further, in series [2] (impure, stored in the air, unprotected from light, room temperature or higher), the stability on storage result is given as “gradually converted into Lysolipin I”. Moreover, the “stability of pure product” value in [2] (in the absence of light and acid) was “stable”. In addition, in series [2] (silica gel plate, standing in the air, more rapidly on warming), the “stability on thin layer plate” value is on record as “converted into Lysolipin I”. For the same molecule, the “factor by which the MIC is higher” value in the series with Micro-organisms is given as 10-50. Moreover, the “activity against yeast-like fungi” value with Saccaromyces cerevisiae, in the series on Candida albicans and with Candida lipolytica was “display an activity” in each case. Besides, in the series with microbial cells, the “activity against growing and dormant microbial cells and their sphaeroplasts” value was “active”.
